From paper PMC9928118, “Funneling modulatory peptide design with generative models: Discovery and characterization of disruptors of calcineurin protein-protein interactions” (PLOS Computational Biology, 2023)

System: GST-tagged Cn
Assay: PEPperPRINT peptide microarray binding assay with GST-tagged Cn
From the text: We then estimated in-silico the binding strength of the various peptides to Cn by template-based docking followed by flexible backbone refinement using Modeller and PepCrawler (Figs 4 and S4). In parallel, we performed a medium-throughput qualitative binding assay using a PEPperPRINT peptide microarray to evaluate the direct binding of Cn to selected peptides (Figs 4 and S5, S3 Data).
Fig 4 Medium-throughput filtering by structural modeling and microarray screening. (a) Depiction of the structural modeling protocol: after alignment to the known PxIxIT binding site, an efficient flexible backbone structure refinement algorithm is applied to estimate the docking energy. […] (c) Coefficients of the equivalent single-site model fitted by sparse linear regression, shown in weight logo representation. […] Colors indicate physical property (black = hydrophobic, red = negatively charged, etc.). (d) Per-gene distribution of docking scores across natural fragments (lower is better). […] (e) Overview of the microarray screening. Peptides are printed on the chip (two circles per peptide). After pouring of Cn and subsequent washing, fluorescent-tagged, a Cn-targeting antibody is overlaid and an image is taken. Fluorescent spots indicate strong Cn binders. (f) Scatter plot of the sequence likelihood (normalized by length, higher is better) against fluorescence level (higher is better, see Methods for details of the data analysis).
In parallel, selected peptides were tested for Cn binding on a chip microarray (PEPperPRINT). 786 peptides were printed on the chip and were incubated with GST-tagged Cn overnight at 4°C. Following extensive washing, binding was detected by applying a fluorescently labeled (Alexa-Fluor 647) GST antibody. […] The experiment was repeated five times, and Z-normalized fluorescence levels were determined following post-processing of the raw data (Methods, S5A, S5B and S5C Fig).
The peptide array was prepared as a custom array pepper chip (PEPperPRINT). For binding detection, 1mg/ml GST-tagged Cn was incubated overnight on the microarray at 4°C. Following extensive washing, fluorescently labeled (Alexa-Fluor 647) GST-antibody. […] The experiment was repeated five times. Each scan was analyzed as follows: a grid was overlaid using the border HA markers to determine regions of interest (ROI) for each peptide (two ROIs per peptide) and the logarithm of the average fluorescence intensity was computed for each ROI. […] To remove spatial artifacts, a position-dependent baseline fluorescence was fitted using a second-order polynomial, and subtracted to the fluorescence. Fluorescence levels were next averaged over the two ROI for each peptide and Z-normalized. […] The Z-scores were averaged over the five repetitions to yield one fluorescence score per peptide.

[1] = GST-tagged Cn, max over the chip locations
[2] = GST-tagged Cn, mean over the chip locations
[3] = GST-tagged Cn, max over the spots named in Location on chip
[4] = GST-tagged Cn, mean over the spots named in Location on chip
[5] = max over the chip locations listed for the peptide (two spots)
[6] = mean over the chip locations listed for the peptide (two spots)
[7] = max over the spots listed under Location on chip
[8] = mean over the spots listed under Location on chip
[9] = GST-tagged Cn, max over the spots on the chip (two locations)
[10] = GST-tagged Cn, mean over the spots on the chip (two locations)
[11] = GST-tagged Cn, max over the chip spots listed under Location on chip
[12] = GST-tagged Cn, mean over the chip spots listed under Location on chip

## ESFGNELIPFNASKSY [Seqshuffled_9947]
[1]
  Chip Fluorescence (max): -0.1304
[2]
  Chip Fluorescence (mean): -0.5132

## ESLWIPNATPTNFGVY [SeqRBM_4910]
[3]
  Chip Fluorescence (max): 1.643
[4]
  Chip Fluorescence (mean): 0.8461

## ESSTTPGVVVHICEDD [SeqRBM_7485]
[5]
  Chip Fluorescence (max): 8.839
[6]
  Chip Fluorescence (mean): 1.544

## FAKHWPKLSDVSPVAH [SeqRBM_8299]
[1]
  Chip Fluorescence (max): 0.2862
[2]
  Chip Fluorescence (mean): -1.095

## FETSHPTVQLKIPQLR [SeqLCORL_Pteropus_alecto]
[7]
  Chip Fluorescence (max): 2.606
[8]
  Chip Fluorescence (mean): -0.1576

## FFHHGLSCCKARQAEY [Seqrandom_9955]
[5]
  Chip Fluorescence (max): 3.699
[6]
  Chip Fluorescence (mean): 0.5277

## FHYEDLSWHFQLFEGE [Seqrandom_9976]
[5]
  Chip Fluorescence (max): 5.256
[6]
  Chip Fluorescence (mean): 1.49

## FLGRGPQLEDFDPSRD [Seqshuffled_9338]
[5]
  Chip Fluorescence (max): 4.229
[6]
  Chip Fluorescence (mean): 0.4051

## FNSWRQVPLWSPEFHT [SeqRBM_9832]
[9]
  Chip Fluorescence (max): 1.192
[10]
  Chip Fluorescence (mean): 0.531

## FSFMCPDSNTNHDQVS [SeqRBM_6801]
[11]
  Chip Fluorescence (max): 0.3774
[12]
  Chip Fluorescence (mean): -0.7887

## FSGNQPAIVVHTCEDP [SeqRBM_2445]
[1]
  Chip Fluorescence (max): 0.03592
[2]
  Chip Fluorescence (mean): -0.8656

## FSMLIGMHEPHPNTTI [Seqrandom_9971]
[3]
  Chip Fluorescence (max): 1.524
[4]
  Chip Fluorescence (mean): -0.1169

## FSNKASKARRMEPLSI [SeqRBM_824]
[9]
  Chip Fluorescence (max): 1.106
[10]
  Chip Fluorescence (mean): -0.01462

## GAPGTPSRWGTPLAPS [SeqRBM_851]
[3]
  Chip Fluorescence (max): 1.622
[4]
  Chip Fluorescence (mean): 0.7552

## GAPITPHKQGNEKAVS [SeqRBM_6919]
[11]
  Chip Fluorescence (max): 0.7143
[12]
  Chip Fluorescence (mean): -1.223

## GASMCPAMSWQDCGQR [SeqSFB3_Iconisemion_striatum]
[3]
  Chip Fluorescence (max): 1.507
[4]
  Chip Fluorescence (mean): 0.3571

## GAWGLNKSGLFLINEV [Seqshuffled_9399]
[5]
  Chip Fluorescence (max): 7.244
[6]
  Chip Fluorescence (mean): 0.4206

## GDPITVTFSFKQQSIR [Seqshuffled_9986]
[5]
  Chip Fluorescence (max): 4.236
[6]
  Chip Fluorescence (mean): -0.3717

## GDYMQGTLQAETGEHD [Seqshuffled_9624]
[3]
  Chip Fluorescence (max): 1.494
[4]
  Chip Fluorescence (mean): 0.7951

## GELAIKNMKPWDVGGY [SeqRBM_3830]
[7]
  Chip Fluorescence (max): 3.053
[8]
  Chip Fluorescence (mean): 1.402

## GGESQPGIVVHVCEED [SeqRBMlowT_2505]
[3]
  Chip Fluorescence (max): 1.711
[4]
  Chip Fluorescence (mean): 0.4381

## GGLRSDSVTMIDQGAY [SeqRBM_2699]
[7]
  Chip Fluorescence (max): 2.739
[8]
  Chip Fluorescence (mean): 1.043

## GGPGTPGRPGIHSAPS [SeqRBM_5424]
[3]
  Chip Fluorescence (max): 1.6472
[4]
  Chip Fluorescence (mean): -0.88

## GGPGTPGRQGGHLAPS [SeqRBMlowT_9820]
[9]
  Chip Fluorescence (max): 1.277
[10]
  Chip Fluorescence (mean): -0.2851

## GGPGTPGRQGQHLAPS [SeqRBMlowT_7794]
[1]
  Chip Fluorescence (max): 0.3619
[2]
  Chip Fluorescence (mean): -1.021

## GGPGTPGRQGQPLAPS [SeqRBMlowT_7795]
[3]
  Chip Fluorescence (max): 1.388
[4]
  Chip Fluorescence (mean): -0.6767

## GGPGTPTRQGQHLAPG [SeqRBMlowT_9846]
[5]
  Chip Fluorescence (max): 21.0979
[6]
  Chip Fluorescence (mean): 2.702

## GGPGTPTRQGQPLAPS [SeqRBMlowT_7789]
[5]
  Chip Fluorescence (max): 4.384
[6]
  Chip Fluorescence (mean): 0.9288

## GHSHNPSITITFAEAE [SeqRBM_9189]
[5]
  Chip Fluorescence (max): 4.764
[6]
  Chip Fluorescence (mean): 1.127

## GLCDSSKVNLVDAGPV [Seqshuffled_9731]
[9]
  Chip Fluorescence (max): 1.002
[10]
  Chip Fluorescence (mean): 0.1299

## GLLNVYKKTRITYDNL [Seqrandom_1974]
[11]
  Chip Fluorescence (max): 0.9025
[12]
  Chip Fluorescence (mean): -0.2688

## GPPATPSIVVHPCCCD [SeqRBM_2098]
[9]
  Chip Fluorescence (max): 1.034
[10]
  Chip Fluorescence (mean): -0.005812

## GPQDIPEVVVSPPEDD [SeqSLC4A7_Austrofundulus_limnaeus]
[5]
  Chip Fluorescence (max): 6.762
[6]
  Chip Fluorescence (mean): 1.072

## GQSISRNIRPNTFSPL [Seqshuffled_9432]
[1]
  Chip Fluorescence (max): 0.04391
[2]
  Chip Fluorescence (mean): -1.286

## GSDDCPNVIVHIPHED [SeqRBM_9050]
[5]
  Chip Fluorescence (max): 5.16
[6]
  Chip Fluorescence (mean): 0.1112

## GSETQPGIVVHVCEDD [SeqRBMlowT_1216]
[7]
  Chip Fluorescence (max): 2.678
[8]
  Chip Fluorescence (mean): 0.9155

## GSMLVPAINIDYAPTN [SeqRBMlowT_5048]
[7]
  Chip Fluorescence (max): 2.642
[8]
  Chip Fluorescence (mean): 1.025

## GSPPTPSRSGKPPKPL [SeqRBM_2495]
[7]
  Chip Fluorescence (max): 3.396
[8]
  Chip Fluorescence (mean): 0.6955

## GSSSSPPVDLKIPQVR [SeqRBMlowT_8820]
[9]
  Chip Fluorescence (max): 1.178
[10]
  Chip Fluorescence (mean): 0.2864

## GTDTTPSVVVHVCEDD [SeqRBMlowT_1211]
[11]
  Chip Fluorescence (max): 0.8657
[12]
  Chip Fluorescence (mean): -0.2753

## GTESTPSVVVHVCDSD [SeqRCN1_Desmodus_rotundus]
[11]
  Chip Fluorescence (max): 0.4586
[12]
  Chip Fluorescence (mean): 0.04317

## GTESTPSVVVHVCESE [SeqRCN1_Pongo_abelii]
[5]
  Chip Fluorescence (max): 3.823
[6]
  Chip Fluorescence (mean): 1.0203

## GTETTPSIVVHVCEDD [SeqRBMlowT_128]
[5]
  Chip Fluorescence (max): 4.964
[6]
  Chip Fluorescence (mean): 1.374

## GTETTPSVVVHVCEDD [SeqRBMlowT_112]
[5]
  Chip Fluorescence (max): 4.01
[6]
  Chip Fluorescence (mean): 1.52

## GTLYDNVLGIESFSLS [SeqRBMlowT_4817]
[5]
  Chip Fluorescence (max): 3.464
[6]
  Chip Fluorescence (mean): 0.964

## GTMSPPDISITPPYAP [SeqRBM_3223]
[1]
  Chip Fluorescence (max): 0
[2]
  Chip Fluorescence (mean): -0.3136

## GTSGGFPQTDRSHKKQ [SeqRBM_413]
[5]
  Chip Fluorescence (max): 3.637
[6]
  Chip Fluorescence (mean): -0.2581

## GVHSCPALSVDRPQNQ [Seqshuffled_9565]
[9]
  Chip Fluorescence (max): 1.31
[10]
  Chip Fluorescence (mean): -0.01046

## GVPETPSRPVDPTAPS [SeqRBM_5086]
[1]
  Chip Fluorescence (max): -0.4316
[2]
  Chip Fluorescence (mean): -1.3551

## GVQANPQFTIKAMMTN [SeqRBM_9281]
[1]
  Chip Fluorescence (max): -0.1422
[2]
  Chip Fluorescence (mean): -2.366

## GYDIDPAISFDSDLML [Seqshuffled_9502]
[7]
  Chip Fluorescence (max): 3.174
[8]
  Chip Fluorescence (mean): 2.023

## HISSSPDITATPTQHR [SeqRIPOR2_Calypte_anna]
[1]
  Chip Fluorescence (max): -0.228
[2]
  Chip Fluorescence (mean): -0.7974

## HSKFIPKLSIQSPVLH [SeqRBMlowT_6746]
[3]
  Chip Fluorescence (max): 1.7974
[4]
  Chip Fluorescence (mean): -0.2423

## HSKFIPKLSLQSPVHH [SeqRBMlowT_1695]
[9]
  Chip Fluorescence (max): 1.29
[10]
  Chip Fluorescence (mean): -0.2065

## HSKLIPKLSFQSPVHH [SeqRBMlowT_814]
[1]
  Chip Fluorescence (max): -0.8035
[2]
  Chip Fluorescence (mean): -1.44

## HSKLIPKLSIQSPVHH [SeqRBMlowT_822]
[1]
  Chip Fluorescence (max): 0.1809
[2]
  Chip Fluorescence (mean): -0.5839

## HSKLIPKLSISSPVHH [SeqRBMlowT_1731]
[11]
  Chip Fluorescence (max): 0.5936
[12]
  Chip Fluorescence (mean): -1.087

## HSKLIPKLSVQSPVHH [SeqRBMlowT_1714]
[3]
  Chip Fluorescence (max): 1.671
[4]
  Chip Fluorescence (mean): -0.5381

## HSKLIPKVSIQSPVHH [SeqRBMlowT_2323]
[1]
  Chip Fluorescence (max): 0.1516
[2]
  Chip Fluorescence (mean): -0.9286

## HSKSIPKFSFQSPVHH [SeqRBMlowT_1680]
[1]
  Chip Fluorescence (max): 0.06895
[2]
  Chip Fluorescence (mean): -0.7142

## HSKSIPKISIQSPVHH [SeqRBMlowT_863]
[1]
  Chip Fluorescence (max): -0.2725
[2]
  Chip Fluorescence (mean): -0.8171

## HSKSSPKLSISSPVHH [SeqRBMlowT_1628]
[7]
  Chip Fluorescence (max): 3.1562
[8]
  Chip Fluorescence (mean): 1.038

## HVEDTTEFALQRPSND [Seqshuffled_9422]
[3]
  Chip Fluorescence (max): 1.612
[4]
  Chip Fluorescence (mean): 0.1762

## HVSSSPDIAITPTQHR [SeqRBMlowT_750]
[1]
  Chip Fluorescence (max): 0.08257
[2]
  Chip Fluorescence (mean): -1.44

## HVSSSPDIALTPEQHD [SeqRBM_7666]
[1]
  Chip Fluorescence (max): 0.08725
[2]
  Chip Fluorescence (mean): -0.9315

## HVSSSPDITITPTQHR [SeqRBMlowT_702]
[9]
  Chip Fluorescence (max): 1.204
[10]
  Chip Fluorescence (mean): 0.3347
